In article PMC9147192, “Small Molecule Arranged Thermal Proximity Coaggregation (smarTPCA)—A Novel Approach to Characterize Protein–Protein Interactions in Living Cells by Similar Isothermal Dose–Responses” (International Journal of Molecular Sciences, 2022):
Several values for one entry are separate records, joined by “and”; a condition that tells them apart may be missing. Equal entries are not always repeated. Where two headings read alike, the source gives them in different places.

Columns and labels:
MAPK8 = MAPK8 (Homo sapiens, UniProt P45983); assay: TPP-CCR in living HL-60 cells; details: […] °C, TMT-MS
Sequence of MAPK8 (P45983 whole entry): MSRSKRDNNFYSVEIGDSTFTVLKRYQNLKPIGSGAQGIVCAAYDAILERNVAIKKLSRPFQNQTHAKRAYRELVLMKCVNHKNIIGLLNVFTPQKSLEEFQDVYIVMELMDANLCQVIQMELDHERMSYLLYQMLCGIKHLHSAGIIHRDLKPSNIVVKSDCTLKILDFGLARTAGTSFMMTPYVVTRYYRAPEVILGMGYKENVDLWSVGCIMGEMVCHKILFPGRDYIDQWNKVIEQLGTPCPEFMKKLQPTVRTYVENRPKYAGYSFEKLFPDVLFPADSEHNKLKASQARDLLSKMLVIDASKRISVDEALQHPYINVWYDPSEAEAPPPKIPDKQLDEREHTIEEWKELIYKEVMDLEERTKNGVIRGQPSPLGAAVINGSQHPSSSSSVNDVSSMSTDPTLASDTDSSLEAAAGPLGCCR

HN1L = target: T1, HN1L (Homo sapiens, UniProt Q9H910); assay: TPP-CCR in living HL-60 cells; details: for Hill slope (HN1L): living HL-60 cells, […] °C, TMT-MS
T1 sequence (Q9H910 1-190): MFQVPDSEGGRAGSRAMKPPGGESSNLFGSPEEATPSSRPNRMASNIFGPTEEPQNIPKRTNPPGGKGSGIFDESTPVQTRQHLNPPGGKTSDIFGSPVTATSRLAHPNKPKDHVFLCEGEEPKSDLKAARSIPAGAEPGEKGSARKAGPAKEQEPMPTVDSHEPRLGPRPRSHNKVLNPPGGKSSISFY

GSK-3α = target: T2, GSK-3α (Homo sapiens, UniProt P49840); assay: CETSA in HL-60 cell extract, immunoblot; format: binding; details: for ΔTm at 20 µM / Tm (GSK-3α): 20 µM inhibitor; for Tm difference vs DMSO, same protein: inhibitor minus DMSO; for Tm (fitted melting curve): in °C; for Tm: GSK-3α, cell extract
T2 construct: parallel detection of MAPK14, MAPKAPK2, MAPKAPK3, and GSK-3α; endogenous in cells; host or cells: HL-60 (ATCC CCL-240), living cells or cell extract
T2 sequence (P49840 whole entry): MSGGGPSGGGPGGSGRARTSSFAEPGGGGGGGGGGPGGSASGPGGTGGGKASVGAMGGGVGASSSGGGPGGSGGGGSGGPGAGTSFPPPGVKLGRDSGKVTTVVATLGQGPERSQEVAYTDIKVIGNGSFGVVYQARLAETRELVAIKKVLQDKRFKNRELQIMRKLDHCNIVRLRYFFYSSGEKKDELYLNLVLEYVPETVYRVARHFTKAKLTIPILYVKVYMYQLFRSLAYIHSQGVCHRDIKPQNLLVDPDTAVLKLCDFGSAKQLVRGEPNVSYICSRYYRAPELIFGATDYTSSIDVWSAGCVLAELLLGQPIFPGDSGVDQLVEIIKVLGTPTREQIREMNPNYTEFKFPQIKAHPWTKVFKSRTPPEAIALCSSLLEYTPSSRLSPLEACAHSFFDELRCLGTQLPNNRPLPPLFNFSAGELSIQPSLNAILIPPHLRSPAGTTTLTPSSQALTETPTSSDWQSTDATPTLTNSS
Protocol: (§1) For the differentiation of primary and secondary binding effects, CETSA experiments using cell extracts instead of living cells (cell extract test) are proposed in the literature. Therefore, we performed CETSA assays in HL-60 cell extracts under the same conditions as for living cells (Figure 1, Table 1, Supplementary Table S6).
(§2) HL-60 cells were expanded as described above for CETSA and TPP-TR to about 1.25 million cells per ml. 50 mL of the cell suspension, respectively, was transferred into 50 mL conical tubes. After centrifugation (300 rcf, 3 min, r.t.) and removing all of the supernating culture medium, the cells were washed twice with 25 mL PBS (r.t.) by gently resuspending the cells, followed by centrifugation (300 rcf, 3 min, r.t.) and the removal of the supernatant. The cells were transferred into pre-weighed 2 mL LoBind Eppendorf tubes using 1 mL PBS (r.t.), respectively, for resuspending. After centrifugation (300 rcf, 3 min, r.t.) and removing as much as possible of the supernatants, the cell wet weights were determined. The cells were stored at −80 °C after shock-freezing in liquid nitrogen.
(§3) Cell extracts were obtained by four freeze/thaw cycles as described above for CETSA and TPP-TR using 10 µL ice cold PBS supplemented with protease inhibitors per milligram of cell pellet wet weight for the initial resuspension of the pellet, followed by centrifugation (20,000 rcf, 30 min, 4 °C), and the recovery of the supernatant. After determining the protein content, the cell extracts were diluted to 1.8 mg/mL total protein concentration using ice-cold PBS supplemented with protease inhibitors and aliquots of 99 µL in PCR tube strips, and 1.1 mL in LoBind 1.5 mL Eppendorf tubes were shock-frozen in liquid nitrogen and stored at −80 °C or directly processed.
(§4) A fourth aliquot of 1.8 mg/mL HL-60 cell extract was supplemented with 2.2 µL of DMSO. […] After a brief centrifugation using a benchtop centrifuge, the temperature treatment at the ten different temperatures was performed as described in Section 4.1.1.
(§5) Additionally, the preparation of cell extracts containing the fraction of soluble, non-denatured proteins was performed as described in Section 4.1.1. for living cells, but omitting the freeze/thaw steps for cell lysis.
(§6) For each sample set comprising either ten temperature range samples or ten compound concentration range samples, the same volume of the cell extracts containing the fraction of soluble, non-denatured proteins was used for further analysis. This volume was determined using the two lowest temperature samples (36.5 and 41.2 °C) per temperature range sample set so that they contained an average of 5 µg total protein (e.g., 2.78 µL for all temperature range samples of a sample set whose two lowest temperature samples contain an average of 1.8 mg/mL protein). For the compound concentration range experiments, all samples of a set were used for averaging. The calculated volume was respectively transferred into PCR tubes of a tube strip, supplemented with SDS sample buffer (final concentrations: 25 mM dithiothreitol (DTT), 7.5% glycerol, 3% SDS, 37.5 mM Tris/HCl pH 7.0, 0.005% bromophenol blue), incubated for 10 min at r.t. and applied to SDS-PAGE under external cooling in an ice bath (MW marker: PageRuler pre-stained protein ladder (Thermo scientific, Waltham, MA, USA); NuPAGE 4–12% Bis-Tris Gels, 1.0 mm, Midi Protein Gel, 26-well (Thermo fisher scientific); ice cold MOPS SDS running buffer (50 mM MOPS, 50 mM Tris base, 0.1% SDS, 0.003% EDTA (free acid)); 50 V for 15 min, then 200 V for about 1.5 h, i.e., the rest of the run).

MAPKAPK2 [1] = target: T3, MAPKAPK2 (Homo sapiens, UniProt P49137); assay: CETSA in HL-60 cell extract, immunoblot; format: binding; details: for Tm difference vs DMSO, same protein: MAPKAPK2, inhibitor minus DMSO
Protocol: as §1, §2, §3, §4, §5, §6
Target sequence in this assay (P49137 whole entry): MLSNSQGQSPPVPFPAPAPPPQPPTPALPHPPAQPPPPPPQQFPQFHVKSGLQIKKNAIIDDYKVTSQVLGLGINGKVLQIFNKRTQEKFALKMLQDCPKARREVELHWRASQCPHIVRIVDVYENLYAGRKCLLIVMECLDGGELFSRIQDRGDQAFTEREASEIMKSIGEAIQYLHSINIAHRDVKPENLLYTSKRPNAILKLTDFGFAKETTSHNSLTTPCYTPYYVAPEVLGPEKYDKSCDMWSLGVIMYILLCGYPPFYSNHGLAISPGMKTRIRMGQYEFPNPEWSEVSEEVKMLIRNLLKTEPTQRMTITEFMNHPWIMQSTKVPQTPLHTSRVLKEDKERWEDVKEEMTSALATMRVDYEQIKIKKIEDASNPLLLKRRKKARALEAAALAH

MAPKAPK2 [2] = target: T3, MAPKAPK2; assay: TPP-CCR in living HL-60 cells; details: […] °C, TMT-MS
Target sequence in this assay (P49137 whole entry): as above
Target sequence in this assay (Q16539 2-360 partner limits assumed): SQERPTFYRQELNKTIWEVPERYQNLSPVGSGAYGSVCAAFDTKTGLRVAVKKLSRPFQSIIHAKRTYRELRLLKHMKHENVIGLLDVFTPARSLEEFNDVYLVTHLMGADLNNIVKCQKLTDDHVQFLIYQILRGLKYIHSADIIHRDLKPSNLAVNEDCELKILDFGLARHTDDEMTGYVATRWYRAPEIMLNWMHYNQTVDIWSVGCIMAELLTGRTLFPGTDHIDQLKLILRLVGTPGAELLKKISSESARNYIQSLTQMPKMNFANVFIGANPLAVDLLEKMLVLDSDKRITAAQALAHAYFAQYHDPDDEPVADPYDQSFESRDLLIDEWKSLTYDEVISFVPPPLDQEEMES

MAPK14 [3] = tested on: MAPK14; set-up: method as in Jafari et al., Nat. Protoc. 2014; details: MAPK14, living HL-60 cells, ref Jafari et al., Nat. Protoc. 2014, cited from earlier work
MYLK = MYLK (Homo sapiens, UniProt Q15746); assay: TPP-CCR in living HL-60 cells
Sequence of MYLK (Q16539 2-360 partner limits assumed): as above
Sequence of MYLK (Q15746 whole entry): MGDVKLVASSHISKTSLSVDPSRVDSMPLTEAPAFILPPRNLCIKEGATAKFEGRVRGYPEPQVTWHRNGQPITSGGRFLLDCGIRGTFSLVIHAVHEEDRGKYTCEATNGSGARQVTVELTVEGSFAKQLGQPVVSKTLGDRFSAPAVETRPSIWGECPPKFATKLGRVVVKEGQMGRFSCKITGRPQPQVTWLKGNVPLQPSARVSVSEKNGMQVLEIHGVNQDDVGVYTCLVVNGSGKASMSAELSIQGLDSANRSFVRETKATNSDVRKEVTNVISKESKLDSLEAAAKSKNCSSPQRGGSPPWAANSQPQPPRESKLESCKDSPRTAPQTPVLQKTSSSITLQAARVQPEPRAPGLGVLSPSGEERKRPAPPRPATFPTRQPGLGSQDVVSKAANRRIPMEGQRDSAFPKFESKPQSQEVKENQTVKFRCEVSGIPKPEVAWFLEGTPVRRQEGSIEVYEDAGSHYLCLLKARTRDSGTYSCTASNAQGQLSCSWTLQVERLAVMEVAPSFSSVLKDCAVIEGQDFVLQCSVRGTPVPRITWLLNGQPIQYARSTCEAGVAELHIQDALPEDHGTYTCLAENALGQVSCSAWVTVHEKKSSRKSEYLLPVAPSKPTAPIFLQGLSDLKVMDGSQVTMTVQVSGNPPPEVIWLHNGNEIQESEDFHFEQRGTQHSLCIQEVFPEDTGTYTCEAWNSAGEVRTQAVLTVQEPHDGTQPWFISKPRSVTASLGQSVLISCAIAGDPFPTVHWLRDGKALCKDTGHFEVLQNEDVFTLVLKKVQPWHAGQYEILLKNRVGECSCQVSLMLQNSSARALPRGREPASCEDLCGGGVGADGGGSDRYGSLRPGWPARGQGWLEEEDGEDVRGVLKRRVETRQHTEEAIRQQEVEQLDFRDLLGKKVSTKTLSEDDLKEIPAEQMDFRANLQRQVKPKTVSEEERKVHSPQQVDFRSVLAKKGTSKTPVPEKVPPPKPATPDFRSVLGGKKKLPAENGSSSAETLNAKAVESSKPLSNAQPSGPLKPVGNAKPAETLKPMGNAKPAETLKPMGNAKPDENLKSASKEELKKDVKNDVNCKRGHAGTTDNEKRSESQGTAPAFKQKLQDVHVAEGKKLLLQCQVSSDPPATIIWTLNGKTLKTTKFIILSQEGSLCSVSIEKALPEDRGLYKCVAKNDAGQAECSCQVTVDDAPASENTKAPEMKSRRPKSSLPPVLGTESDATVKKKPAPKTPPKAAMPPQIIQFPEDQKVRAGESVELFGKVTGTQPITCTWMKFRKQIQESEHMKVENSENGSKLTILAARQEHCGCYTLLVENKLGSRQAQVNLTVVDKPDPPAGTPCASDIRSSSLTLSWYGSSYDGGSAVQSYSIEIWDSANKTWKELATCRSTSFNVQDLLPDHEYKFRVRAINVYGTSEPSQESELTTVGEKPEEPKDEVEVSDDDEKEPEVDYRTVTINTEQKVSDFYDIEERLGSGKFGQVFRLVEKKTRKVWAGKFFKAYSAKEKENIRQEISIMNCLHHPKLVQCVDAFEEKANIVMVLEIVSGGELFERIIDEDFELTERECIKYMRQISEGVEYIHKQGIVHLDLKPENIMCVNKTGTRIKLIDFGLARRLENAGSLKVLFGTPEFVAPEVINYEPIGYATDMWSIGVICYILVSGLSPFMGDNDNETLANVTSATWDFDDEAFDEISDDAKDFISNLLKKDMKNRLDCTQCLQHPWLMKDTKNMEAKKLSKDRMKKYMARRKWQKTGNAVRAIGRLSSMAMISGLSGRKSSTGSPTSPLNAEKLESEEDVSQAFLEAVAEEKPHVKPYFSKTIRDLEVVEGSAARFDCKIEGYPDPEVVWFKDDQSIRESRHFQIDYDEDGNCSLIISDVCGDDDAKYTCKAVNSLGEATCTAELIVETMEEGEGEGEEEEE

USP24 = USP24 (Homo sapiens, UniProt Q9UPU5); assay: TPP-CCR in living HL-60 cells
MAPK14 [4] = details: cited from earlier work
MAPKAPK2 [5] = tested on: MAPKAPK2; set-up: method as in PMID 22037378; details: cited from earlier work
WDR46 = WDR46 (Homo sapiens, UniProt O15213); assay: TPP-CCR in living HL-60 cells
Sequence of WDR46 (O15213 whole entry): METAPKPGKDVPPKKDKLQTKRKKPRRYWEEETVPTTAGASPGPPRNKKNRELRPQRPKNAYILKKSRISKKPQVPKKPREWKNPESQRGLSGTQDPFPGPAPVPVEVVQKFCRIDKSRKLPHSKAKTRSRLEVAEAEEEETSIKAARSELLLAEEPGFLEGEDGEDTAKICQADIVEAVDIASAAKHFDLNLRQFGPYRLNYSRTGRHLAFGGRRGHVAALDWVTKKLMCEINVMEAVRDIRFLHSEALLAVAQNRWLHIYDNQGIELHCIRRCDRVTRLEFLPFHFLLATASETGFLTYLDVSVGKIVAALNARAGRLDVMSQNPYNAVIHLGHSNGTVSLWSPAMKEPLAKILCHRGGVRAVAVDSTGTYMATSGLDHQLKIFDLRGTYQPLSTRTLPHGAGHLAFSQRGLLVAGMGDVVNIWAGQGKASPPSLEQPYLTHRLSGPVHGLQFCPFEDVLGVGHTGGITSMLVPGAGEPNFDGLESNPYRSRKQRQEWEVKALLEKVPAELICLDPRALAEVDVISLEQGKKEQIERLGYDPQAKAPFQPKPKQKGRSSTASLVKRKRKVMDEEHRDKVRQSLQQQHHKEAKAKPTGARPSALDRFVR

[6] = read-out: ΔTm to DMSO in Cell Extract Compared to Living Cells (GSK-3α)
[7] = CETSA in cell extract (lysate), GSK3a
[8] = HL-60 cell extract, immunoblot, read-out: ΔTm to DMSO (GSK-3α)
[9] = MAPKAPK2, cell extract, immunoblot
[10] = living HL-60 cells, […] °C, TMT-MS

SMILES: Cn1c(NC[C@@H](N)Cc2ccccc2)nc(-c2ccncc2)c(-c2ccc3ccccc3c2)c1=O [AMG-548]
- Hill slope (MAPK8) (MAPK8): 0.24
- EC50 (HN1L): 389 nM
- Hill slope (HN1L) (HN1L): 0.39
- ΔTm at 20 µM (GSK-3α; [6]): -0.05 °C
- Tm difference vs DMSO, same protein (GSK-3α; [7]): -0.76
- Tm (fitted melting curve) (GSK-3α; [7]): 48.26
- Tm (GSK-3α; immunoblot): 48.26 °C
- Tm (GSK-3α) (GSK-3α; HL-60 cell extract, immunoblot): 48.26 °C
- ΔTm at 20 µM (GSK-3α; [8]): -0.76 °C
- ΔTm to DMSO in Cell Extract Compared to Living Cells (MAPKAPK2) (MAPKAPK2 [1]; 20 µM inhibitor): −2.22 °C
- Tm difference vs DMSO, same protein (MAPKAPK2 [1]; CETSA in cell extract (lysate)): 2.96
- Tm (fitted melting curve) (MAPKAPK2 [1]; CETSA in cell extract (lysate), MAPKAPK2, in °C): 51.06
- Tm (MAPKAPK2) (MAPKAPK2 [1]; HL-60 cell extract, 20 µM inhibitor, immunoblot): 51.06 °C
- ΔTm to DMSO (MAPKAPK2) (MAPKAPK2 [1]; HL-60 cell extract, 20 µM inhibitor, immunoblot, 20 µM): 3.0 °C and 2.96 °C
- ΔTm to DMSO in cell extract compared to living cells (MAPKAPK2 [1]; MAPKAPK2, cell extract minus living cells): -2.22 °C
- Tm (MAPKAPK2 [1]; [9]): 51.06 °C
- ΔTm to DMSO (MAPKAPK2 [1]; [9]): 2.96 °C
- Hill slope (MAPKAPK2) (MAPKAPK2 [2]): 0.72
- Tagg values (given as averages ± s.d.), AlphaScreen (MAPK14 [3]): 59.2 ± 0.9 °C
- Tagg values (given as averages ± s.d.), Western blot (MAPK14 [3]): 60.6 ± 1.0 °C
- EC50 (MYLK): 6.03 nM
- Hill slope (MYLK) (MYLK; [10]): 0.44
- EC50 (USP24): 2.69 nM
- Hill slope (USP24) (USP24; [10]): 0.71

SMILES: Cc1cnc(Nc2ccc(F)cc2Cl)nc1-c1c[nH]c(C(=O)N[C@H](CO)c2cccc(Cl)c2)c1 [ERK 11e]
- EC50 (HN1L): 110 nM
- Hill slope (HN1L; TPP-CCR, living cells, HN1L): 0.20
- Hill slope (HN1L) (HN1L): 0.20
- ΔTm at 20 µM (GSK-3α; [6]): 1.1 °C
- Tm difference vs DMSO, same protein (GSK-3α; [7]): 1.24
- Tm (fitted melting temperature) (GSK-3α; CETSA in cell extract (lysate), GSK3a, melting curve fit, in °C (unit assumed)): 50.2547
- Tm (fitted melting curve) (GSK-3α; [7]): 50.25
- Tm (GSK-3α; immunoblot): 50.25 °C
- Tm (GSK-3α) (GSK-3α; HL-60 cell extract, immunoblot): 50.25 °C
- ΔTm at 20 µM (GSK-3α; [8]): 1.24 °C
- ΔTm at 20 µM (MAPKAPK2 [1]; 20 µM inhibitor, read-out: ΔTm to DMSO in Cell Extract Compared to Living Cells (MAPKAPK2)): 0.25 °C
- Tm difference vs DMSO, same protein (MAPKAPK2 [1]; CETSA in cell extract (lysate)): 0.23
- ΔTm at 20 µM (MAPKAPK2 [1]; HL-60 cell extract, 20 µM inhibitor, immunoblot, read-out: ΔTm to DMSO (MAPKAPK2)): 0.23 °C
- Tagg values (given as averages ± s.d.), AlphaScreen (MAPK14 [3]): no substantial response (same as DMSO)
- Tagg values (given as averages ± s.d.), Western blot (MAPK14 [3]): no substantial response (same as DMSO)

SMILES: C[S+]([O-])c1ccc(-c2nc(-c3ccncc3)c(-c3ccc(F)cc3)[nH]2)cc1 (centres unmarked) [SB203580]
- Hill slope (MAPK8) (MAPK8): 0.44
- activity against MAPK14 (MAPK14 [4]): high activity
- activity towards MAPKAPK2 (MAPKAPK2 [5]): inactivity
- EC50 (WDR46): 32.4 nM
- Hill slope (WDR46) (WDR46; [10]): 0.23
